pIC50: −log10 of the molar value. Values joined by “and” are separate entries in the source; they are usually repeats but may differ in a detail not shown here. Equal entries are not always repeated. Where two headings read alike, the source gives them in different places.
Target: T1, CHK2 (Homo sapiens, UniProt O96017)
T1 construct: made in house
Assay: CHK2 kinase activity assay (DELFIA, phosphorylation of a CDC25C peptide)
Type: biochemical
Conditions: ATP 30 μM, CHK2 1 nM, read-out: IC50, inhibition of CHK2 kinase activity in vitro

T1 sequence (O96017 whole entry): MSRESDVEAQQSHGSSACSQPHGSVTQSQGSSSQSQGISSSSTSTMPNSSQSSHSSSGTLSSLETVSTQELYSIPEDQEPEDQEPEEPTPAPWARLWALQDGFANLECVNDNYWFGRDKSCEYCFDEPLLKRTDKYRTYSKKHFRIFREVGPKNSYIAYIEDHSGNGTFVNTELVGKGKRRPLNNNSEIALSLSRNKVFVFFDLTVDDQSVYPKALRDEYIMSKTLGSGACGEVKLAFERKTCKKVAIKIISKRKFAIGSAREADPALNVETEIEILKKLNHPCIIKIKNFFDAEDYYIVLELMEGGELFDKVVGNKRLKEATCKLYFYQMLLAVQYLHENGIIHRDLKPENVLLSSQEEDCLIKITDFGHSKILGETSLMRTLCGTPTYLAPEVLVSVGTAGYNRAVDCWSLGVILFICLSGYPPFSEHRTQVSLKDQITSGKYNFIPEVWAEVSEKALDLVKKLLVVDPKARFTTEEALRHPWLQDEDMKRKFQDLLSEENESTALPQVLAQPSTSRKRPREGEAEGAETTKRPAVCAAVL

SMILES | pIC50 (following further studies) | pIC50 (first set of tested compounds)
Oc1ccc(Cl)cc1-c1nc(N[C@@H]2CNC[C@H]2c2ccccc2)c2ccccc2n1 (relative stereo) [Compound A-063, 4-Chloro-2-(4-(trans-4-phenylpyrrolidin-3-ylamino)quinazolin-2-yl)phenol] | 5.52 to 6.52 | –
Oc1ccc(F)cc1-c1nc(N[C@@H]2CNC[C@H]2c2cccc(Cl)c2)c2ccccc2n1 (relative stereo) [Compound A-083] | 5.52 to 6.52 | –
O=C(O)[C@@H]1CNC[C@H]1Nc1nc(-c2cc(F)ccc2O)nc2ccccc12 (relative stereo) [Compound A-089, trans-4-(2-(5-Fluoro-2-hydroxyphenyl)quinazolin-4-ylamino)pyrrolidine-3-carboxylic acid] | 5.52 to 6.52 | –
COc1ccc([C@@H]2CNC[C@H]2Nc2nc(-c3cc(F)ccc3O)nc3ccccc23)cc1 (relative stereo) [Compound A-090, 4-Fluoro-2-(4-(trans-4-(4-methoxyphenyl)pyrrolidin-3-ylamino)quinazolin-2-yl)phenol] | ≥ 6.52 | –
COc1cccc([C@@H]2CNC[C@H]2Nc2nc(-c3cc(F)ccc3O)nc3ccccc23)c1 (relative stereo) [Compound A-091, 4-Fluoro-2-(4-(trans-4-(3-methoxyphenyl)pyrrolidin-3-ylamino)quinazolin-2-yl)phenol] | ≥ 6.52 | –
COc1ccccc1[C@@H]1CNC[C@H]1Nc1nc(-c2cc(F)ccc2O)nc2ccccc12 (relative stereo) [Compound A-092, 4-Fluoro-2-(4-trans(4-(2-methoxyphenyl)pyrrolidin-3-ylamino)quinazolin-2-yl)phenol] | 5.52 to 6.52 | –
C[C@@H]1CNC[C@H]1Nc1nc(-c2cc(F)ccc2O)nc2ccccc12 (relative stereo) [Compound A-099, 4-Fluoro-2-(4-(trans-4-methylpyrrolidin-3-ylamino)quinazolin-2-yl)phenol] | ≥ 6.52 | –
N[C@@H]1CCCC[C@@H]1Nc1nc(-c2ccccc2O)nc2ccccc12 (relative stereo) [Compound B-002] | 4.52 to 5.52 and 5.42 | 4.52 to 5.52
N[C@@H]1CCCC[C@H]1Nc1nc(-c2ccccc2O)nc2ccccc12 (relative stereo) [Compound B-003, 2-[4-(trans-2-Aminocyclohexylamino)-quinazolin-2-yl]-phenol] | 5.52 to 6.52 | > 5.52
CN1CCCC(Nc2nc(-c3ccccc3O)nc3ccccc23)C1 (stereo not drawn) [Compound A-001, 2-[4-(1-Methyl-piperidin-3-yl-amino)-quinazolin-2-yl]-phenol] | 5.52 to 6.52 and 5.80 | > 5.52
CN1CCC(Nc2nc(-c3ccccc3O)nc3ccccc23)CC1 [Compound A-003, 2-[4-(1-Methylpiperidin-4-ylamino)-quinazolin-2-yl]-phenol] | 5.52 to 6.52 | > 5.52
CN1CCC[C@H](Nc2nc(-c3ccccc3O)nc3ccccc23)C1 [Compound A-007, 2-[4-((S)-1-Methylpiperidin-3-ylamino)-quinazolin-2-yl]-phenol] | 4.52 to 5.52 | 4.52 to 5.52
CN1CCC[C@@H](Nc2nc(-c3ccccc3O)nc3ccccc23)C1 [Compound A-008, 2-[4-((R)-1-Methylpiperidin-3-ylamino)-quinazolin-2-yl]-phenol] | 5.52 to 6.52 | > 5.52
Oc1ccccc1-c1nc(N[C@H]2CCN(Cc3ccccc3)C2)c2ccccc2n1 [Compound A-011, 2-[4-((S)-1-Benzylpyrrolidin-3-ylamino)-quinazolin-2-yl]-phenol] | 4.52 to 5.52 | 4.52 to 5.52
Oc1ccc(Cl)cc1-c1nc(N[C@@H]2CCCNC2)c2ccccc2n1 [Compound A-013, (R)-4-Chloro-2-(4-(piperidin-3-ylamino)quinazolin-2-yl)phenol] | ≥ 6.52 | > 5.52
Oc1ccc(F)cc1-c1nc(N[C@@H]2CCCNC2)c2ccccc2n1 [Compound A-014, (R)-4-Fluoro-2-(4-(piperidin-3-ylamino)quinazolin-2-yl)phenol] | ≥ 6.52 | > 5.52
Oc1ccccc1-c1nc(N[C@H]2CCNC2)c2cc(Br)ccc2n1 [Compound A-016, (S)-2-(6-Bromo-4-(pyrrolidin-3-ylamino)quinazolin-2-yl)phenol] | 5.52 to 6.52 | > 5.52
Oc1ccccc1-c1nc(N[C@H]2CCNC2)c2ccc(-c3ccccc3)cc2n1 [Compound A-020, (S)-2-(7-phenyl-4-(pyrrolidinyl-3-ylamino)quinazolin-2-yl)phenol] | 5.52 to 6.52 | > 5.52
CC(C)(C)c1ccc(O)c(-c2nc(N[C@H]3CCNC3)c3ccccc3n2)c1 [Compound A-022, (S)-4-tert-Butyl-2-(4-(pyrrolidin-3-ylamino)quinazolin-2-yl)phenol] | 4.52 to 5.52 | 4.52 to 5.52

SMILES | pIC50 (following further studies) | pIC50 (first set of tested compounds)
Oc1ccccc1-c1nc(N[C@H]2CCNC2)c2cc(-c3ccccc3)ccc2n1 [Compound A-025, (S)-2-(6-Phenyl-4-(pyrrolidinyl-3-ylamino)quinazolin-2-yl)phenol] | 4.52 to 5.52 | 4.52 to 5.52
COC(=O)[C@H]1C[C@H](Nc2nc(-c3cc(Cl)ccc3O)nc3ccccc23)CN1 [Compound A-026, (2R,4S)-Methyl 4-(2-(5-chloro-2-hydroxyphenyl)quinazolin-4-ylamino)pyrrolidine-2-carboxylate] | ≥ 6.52 | > 5.52
Oc1ccccc1-c1nc(N[C@H]2CCNC2)c2ccc(-c3ccc(CN4CCOCC4)cc3)cc2n1 [Compound A-027, (S)-2-(7-(4-(Morpholinomethyl)phenyl)-4-(pyrrolidin-3-ylamino)quinazolin-2-yl)phenol] | ≥ 6.52 | > 5.52
Oc1ccccc1-c1nc(N[C@H]2CCNC2)c2cc(-c3ccc(CN4CCOCC4)cc3)ccc2n1 [Compound A-028, (S)-2-(6-(4-(Morpholinomethyl)phenyl)-4-(pyrrolidin-3-ylamino)quinazolin-2-yl)phenol] | 5.52 to 6.52 | > 5.52
Oc1ccccc1-c1nc(N[C@H]2CCNC2)c2cc(-c3cn[nH]c3)ccc2n1 [Compound A-029, (S)-2-(6-(1H-Pyrazol-4-yl)-4-(pyrrolidin-3-ylamino)quinazolin-2-yl)phenol] | 5.52 to 6.52 | > 5.52
O=C(NCc1ccccc1)[C@H]1C[C@H](Nc2nc(-c3ccccc3O)nc3ccccc23)CN1 [Compound A-031, (2R,4S)-N-Benzyl-4-(2-(2-hydroxyphenyl)quinazolin-4-ylamino)pyrrolidine-2-carboxamide] | 5.52 to 6.52 | > 5.52
CNC(=O)[C@H]1C[C@H](Nc2nc(-c3ccccc3O)nc3ccccc23)CN1 [Compound A-032, (2R,4S)-4-(2-(2-Hydroxyphenyl)quinazolin-4-ylamino)-N-methylpyrrolidine-2-carboxamide] | 5.52 to 6.52 | > 5.52
COC(=O)c1ccc(O)c(-c2nc(N[C@H]3CCNC3)c3ccccc3n2)c1 [Compound A-033, (S)-Methyl 4-hydroxy-3-(4-(pyrrolidin-3-ylamino)quinazolin-2-yl)benzoate] | ≥ 6.52 | > 5.52
O=C([C@H]1C[C@H](Nc2nc(-c3ccccc3O)nc3ccccc23)CN1)N1CCCC1 [Compound A-034, ((2R,4S)-4-(2-(2-Hydroxyphenyl)quinazolin-4-ylamino)pyrrolidin-2-yl)(pyrrolidin-1-yl)methanone] | ≥ 6.52 | > 5.52
O=C([C@H]1C[C@H](Nc2nc(-c3ccccc3O)nc3ccccc23)CN1)N1CCNCC1 [Compound A-035, ((2R,4S)-4-(2-(2-Hydroxyphenyl)quinazolin-4-ylamino)pyrrolidin-2-yl)(piperazin-1-yl)methanone] | 5.52 to 6.52 | > 5.52
CN1CCN(C(=O)[C@H]2C[C@H](Nc3nc(-c4ccccc4O)nc4ccccc34)CN2)CC1 [Compound A-036, ((2R,4S)-4-(2-(2-Hydroxyphenyl)quinazolin-4-ylamino)pyrrolidin-2-yl)(4-methylpiperazin-1-yl)methanone] | 5.52 to 6.52 | > 5.52
O=C([C@H]1C[C@H](Nc2nc(-c3ccccc3O)nc3ccccc23)CN1)N1CCCCC1 [Compound A-037, ((2R,4S)-4-(2-(2-Hydroxyphenyl)quinazolin-4-ylamino)pyrrolidin-2-yl)(piperidin-1-yl)methanone] | ≥ 6.52 | > 5.52
O=C([C@H]1C[C@H](Nc2nc(-c3ccccc3O)nc3ccccc23)CN1)N1CCOCC1 [Compound A-038, ((2R,4S)-4-(2-(2-Hydroxyphenyl)quinazolin-4-ylamino)pyrrolidin-2-yl)(morpholino)methanone] | ≥ 6.52 | > 5.52
O=C(Nc1ccccc1)[C@H]1C[C@H](Nc2nc(-c3ccccc3O)nc3ccccc23)CN1 [Compound A-039, (2R,4S)-4-(2-(2-Hydroxyphenyl)quinazolin-4-ylamino)-N-phenylpyrrolidine-2-carboxamide] | 5.52 to 6.52 | > 5.52
Oc1ccc(Br)cc1-c1nc(N[C@H]2CCNC2)c2ccccc2n1 [Compound A-041, (S)-4-Bromo-2-(4-(pyrrolidin-3-ylamino)quinazolin-2-yl)phenol] | ≥ 6.52 | > 5.52
CN(c1nc(-c2cc(F)ccc2O)nc2ccccc12)[C@H]1CCNC1 [Compound A-043, (S)-4-Fluoro-2-(4-(methyl(pyrrolidin-3-yl)amino)quinazolin-2-yl)phenol] | ≥ 6.52 | > 5.52
CN(c1nc(-c2cc(Cl)ccc2O)nc2ccccc12)[C@H]1CCNC1 [Compound A-044, (S)-4-Chloro-2-(4-(methyl(pyrrolidin-3-yl)amino)quinazolin-2-yl)phenol] | ≥ 6.52 | > 5.52
CN(C)C(=O)[C@H]1C[C@H](Nc2nc(-c3cc(F)ccc3O)nc3ccccc23)CN1 [Compound A-046, (2R,4S)-4-(2-(5-Fluoro-2-hydroxyphenyl)quinazolin-4-ylamino)-N,N-dimethylpyrrolidine-2-carboxamide] | ≥ 6.52 | > 5.52
CN(CCO)C(=O)[C@H]1C[C@H](Nc2nc(-c3ccccc3O)nc3ccccc23)CN1 [Compound A-047, (2R,4S)-N-(2-Hydroxyethyl)-4-(2-(2-hydroxyphenyl)quinazolin-4-ylamino)-N-methylpyrrolidine-2-carboxamide] | 5.52 to 6.52 | > 5.52

From US8324226B2, “Therapeutic oxy-phenyl-aryl compounds and their use” (Cancer Research Technology Limited, priority 2007, dated 2012)
